Target: P70S6K (T412E mutant) (Homo sapiens (Human), UniProt P23443, T412E)
Assay: P70S6K enzyme assay
Type: biochemical
Conditions: 3 nM P70S6K T412E mutant, 24 μM ATP, 1 μM FITC-AHA-AKRRRLSSLRA-OH substrate peptide, 90 min at 25° C.
Outline: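 P70S6K T412E mutant (3 nM) with 24 μM ATP and 1 μM FITC-labelled S6-derived peptide in Hepes pH 7.5, MgCl2, DTT, Brij buffer; 90 min at 25° C, stopped with EDTA. Phosphorylated product and substrate peptides separated by microfluidic mobility shift; IC50 values derived.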

Sequence of P70S6K (T412E mutant) (P23443 whole entry T412E): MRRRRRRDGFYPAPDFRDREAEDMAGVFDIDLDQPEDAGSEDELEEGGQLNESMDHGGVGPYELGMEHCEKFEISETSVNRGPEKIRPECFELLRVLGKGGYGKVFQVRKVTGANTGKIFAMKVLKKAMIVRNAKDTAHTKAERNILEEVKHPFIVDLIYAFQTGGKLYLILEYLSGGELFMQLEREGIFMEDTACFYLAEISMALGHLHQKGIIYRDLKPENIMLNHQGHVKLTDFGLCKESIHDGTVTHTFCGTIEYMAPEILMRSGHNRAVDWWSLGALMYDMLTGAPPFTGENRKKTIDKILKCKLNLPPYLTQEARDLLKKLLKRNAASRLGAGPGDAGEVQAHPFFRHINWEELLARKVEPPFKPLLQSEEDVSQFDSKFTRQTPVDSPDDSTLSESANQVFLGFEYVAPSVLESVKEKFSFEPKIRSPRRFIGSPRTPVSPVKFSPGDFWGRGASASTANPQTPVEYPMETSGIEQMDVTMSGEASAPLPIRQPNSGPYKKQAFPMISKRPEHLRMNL

Row | Compound | IC50
1 | Nc1ncnc(N2CCC(C(O)c3ccc(Cl)cc3)CC2)c1-c1ccc(F)cc1 (centres unmarked) [Example 138] | 2.5 nM
2 | N#CC(c1ccc(C(F)(F)F)cc1)N1CCN(c2ncnc(N)c2-c2ccc(F)cc2)CC1 (centres unmarked) [Example 168, {4-[6-Amino-5-(4-fluoro-phenyl)-pyrimidin-4-yl]-piperazin-1-yl}-(4-trifluoromethyl-phenyl)-acetonitrile] | 240 nM
3 | NCC(c1ccc(Cl)cc1)N1CCN(c2ncnc(N)c2-c2ccc(F)cc2)CC1 (centres unmarked) [Example 163, 6-{4-[2-Amino-1-(4-chloro-phenyl)-ethyl]-piperazin-1-yl}-5-(4-fluoro-phenyl)-pyrimidin-4-ylamine] | 1.3 nM
4 | NCC(c1ccc(C(F)(F)F)cc1F)N1CCN(c2ncnc(N)c2-c2ccc(F)cc2)CC1 (centres unmarked) [Example 170, 6-{4-[2-Amino-1-(2-fluoro-4-trifluoromethyl-phenyl)-ethyl]-piperazin-1-yl}-5-(4-fluoro-phenyl)-pyrimidin-4-ylamine] | 12 nM
5 | NCC(c1ccc(C(F)(F)F)cc1)N1CCN(c2ncnc(N)c2-c2cn[nH]c2)CC1 (centres unmarked) [Example 7, 6-{4-[2-Amino-1-(4-trifluoromethyl-phenyl)-ethyl]-piperazin-1-yl}-5-(1H-pyrazol-4-yl)-pyrimidin-4-ylamine] | 2.8 nM
6 | Nc1ncnc(N2CCN(C(CN3CCC3)c3cccc(F)c3)CC2)c1-c1ccc(F)cc1 (centres unmarked) [Example 90, 6-{4-[2-Azetidin-1-yl-1-(3-fluoro-phenyl)-ethyl]-piperazin-1-yl}-5-(4-fluoro-phenyl)-pyrimidin-4-ylamine] | 600 nM
7 | Nc1cc(N2CCN(C(CN3CCCCC3)c3cccc(C(F)(F)F)c3)CC2)ncn1 (centres unmarked) [Example 71, 6-{4-[1-(3-trifluoromethyl-phenyl)-2-piperidin-1-yl-ethyl]-piperazin-1-yl}-pyrimidin-4-ylamine] | > 1000 nM
8 | NCC(c1ccc(C(F)(F)F)cc1)N1CCN(c2ncnc(N)c2OCc2ccccc2)CC1 (centres unmarked) [Example 34, 6-(4-(2-amino-1-(4-(trifluoromethyl)phenyl)ethyl)piperazin-1-yl)-5-(benzyloxy)pyrimidin-4-amine] | 57 nM
9 | NCC(c1ccc(C(F)(F)F)cc1)N1CCN(c2ncnc(N)c2-c2cc[nH]c2)CC1 (centres unmarked) [Example 37, 6-(4-(2-amino-1-(4-(trifluoromethyl)phenyl)ethyl)piperazin-1-yl)-5-(1H-pyrrol-3-yl)pyrimidin-4-amine] | 5.8 nM
10 | Nc1ncnc(N2CCC(N)(CNC(=O)c3ccc(F)cc3F)CC2)c1-c1ccc(F)cc1 [Example 208, N-{4-Amino-1-[6-amino-5-(4-fluoro-phenyl)-pyrimidin-4-yl]-piperidin-4-ylmethyl}-2,4-difluoro-benzamide] | 46 nM
11 | COC(=O)c1ccc(C(CN2CCC2)N2CCN(c3ncnc(N)c3-c3ccc(F)cc3)CC2)cc1 (centres unmarked) [Example 96, 4-(1-{4-[6-Amino-5-(4-fluoro-phenyl)-pyrimidin-4-yl]-piperazin-1-yl}-2-azetidin-1-yl-ethyl)-benzoic acid methyl ester] | 140 nM
12 | Nc1ncnc(N2CCN(C(CN3CCCC3)c3ccc(F)cc3)CC2)c1Cl (centres unmarked) [Example 81, 5-Chloro-6{4-[1-(4-fluorophenyl)-2-pyrrolidin-1-yl-ethyl]-piperazin-1-yl}-pyrimidin-4-ylamine] | > 1000 nM
13 | CCc1c(N)ncnc1N1CCN(C(CN)c2ccc(Cl)cc2)CC1 (centres unmarked) [Example 178, 6-{4-[2-Amino-1-(4-chloro-phenyl)-ethyl]-piperazin-1-yl}-5-ethyl-pyrimidin-4-ylamine] | 69 nM
14 | C[C@H](c1ccccc1)[C@H](CN)N1CCN(c2ncnc(N)c2-c2ccc(F)cc2)CC1 [Example 171, 6-[4-((1R,2R)-1-Aminomethyl-2-phenyl-propyl)-piperazin-1-yl]-5-(4-fluoro-phenyl)-pyrimidin-4-ylamine] | 73 nM
15 | Nc1ncnc(N2CCN(C(CCN3CCC3)c3ccc(Cl)cc3)CC2)c1-c1ccc(F)cc1 (centres unmarked) [Example 112, 6-{4-[3-Azetidin-1-yl-1-(4-chloro-phenyl)-propyl]-piperazin-1-yl}-5-(4-fluoro-phenyl)-pyrimidin-4-ylamine] | 460 nM

Further lines, results first:

Row | IC50 | Compound
16 | 48.5 nM | CCOc1c(N)ncnc1N1CCN(C(CN)c2ccc(C(F)(F)F)cc2)CC1 (centres unmarked) [Example 32, 6-(4-(2-amino-1-(4-(trifluoromethyl)phenyl)ethyl)piperazin-1-yl)-5-ethoxypyrimidin-4-amine]
17 | 20000 nM | C[C@H](NC(=O)C1(N)CCN(c2ncnc(N)c2C(N)=O)CC1)c1ccc(Cl)cc1 [Example 244, 4-Amino-6-{4-amino-4-[(S)-1-(4-chloro-phenyl)-ethylcarbamoyl]-piperidin-1-yl}-pyrimidine-5-carboxylic acid amide]
18 | 11 nM | Cn1cc(-c2c(N)ncnc2N2CCN(C(CN)c3ccc(C(F)(F)F)cc3)CC2)cn1 (centres unmarked) [Example 40, 6-{4-[2-Amino-1-(4-trifluoromethyl-phenyl)-ethyl]-piperazin-1-yl}-5-(1-methyl-1H-pyrazol-4-yl)-pyrimidin-4-ylamine]
19 | 12 nM | CCn1cc(-c2c(N)ncnc2N2CCN(C(CN)c3ccc(C(F)(F)F)cc3)CC2)cn1 (centres unmarked) [Example 39, 6-(4-(2-amino-1-(4-(trifluoromethyl)phenyl)ethyl)piperazin-1-yl)-5-(1-ethyl-1H-pyrazol-4-yl)pyrimidin-4-amine]
20 | 360 nM | Nc1ncnc(N2CCN(C(CN3CCC3)c3ccc4c(c3)CCCC4)CC2)c1-c1ccc(F)cc1 (centres unmarked) [Example 123, 6-{4-[2-Azetidin-1-yl-1-(5,6,7,8-tetrahydro-naphthalen-2-yl)-ethyl]-piperazin-1-yl}-5-(4-fluoro-phenyl)-pyrimidin-4-ylamine]
21 | > 1000 nM | Nc1ncnc(N2CCN(C(CN3CCCCC3)c3ccc(F)cc3)CC2)c1Br (centres unmarked) [Example 72, 5-Bromo-6{4-[1-(4-fluoro-phenyl)-2-piperidin-1-yl-ethyl]-piperazin-1-yl}-pyrimidin-4-ylamine]
22 | 550 nM | Nc1ncnc(N2CCN(C(CN3CCC3)c3ccc(C(F)(F)F)c(F)c3)CC2)c1-c1cn[nH]c1 (centres unmarked) [Example 127, 6-{4-[2-Azetidin-1-yl-1-(3-fluoro-4-trifluoromethyl-phenyl)-ethyl]-piperazin-1-yl}-5-(1H-pyrazol-4-yl)-pyrimidin-4-ylamine]
23 | 4.8 nM | Nc1ncnc(N2CCC(N)(CNC(=O)c3ccc(F)cc3F)C2)c1-c1ccc(F)cc1 (centres unmarked) [Example 198, N-{3-Amino-1-[6-amino-5-(4-fluoro-phenyl)-pyrimidin-4-yl]-pyrrolidin-3-ylmethyl}-2,4-difluoro-benzamide]
24 | 1500 nM | Nc1ncnc(N2CCN(C(CN3CCC3)c3ccc(Cl)c(Cl)c3)CC2)c1-c1cn[nH]c1 (centres unmarked) [Example 131, 6-{4-[2-Azetidin-1-yl-1-(3,4-dichloro-phenyl)-ethyl]-piperazin-1-yl}-5-(1H-pyrazol-4-yl)-pyrimidin-4-ylamine]
25 | 950 nM | Nc1ncnc(N2CCN(C(CN3CCC3)c3ccc4c(c3)CCCC4)CC2)c1-c1cn[nH]c1 (centres unmarked) [Example 122, 6-{4-[2-Azetidin-1-yl-1-(5,6,7,8-tetrahydro-naphthalen-2-yl)-ethyl]-piperazin-1-yl}-5-(1H-pyrazol-4-yl)-pyrimidin-4-ylamine]
26 | 6 nM | Cn1cc(-c2c(N)ncnc2N2CCN([C@@H](CN)c3ccc(C(F)(F)F)cc3)CC2)cn1 [Example 42, 6-{4-[(R)-2-Amino-1-(4-trifluoromethyl-phenyl)-ethyl]-piperazin-1-yl}-5-(1-methyl-1H-pyrazol-4-yl)-pyrimidin-4-ylamine]
27 | 900 nM | Cc1ccc(C(CN2CCC2)N2CCN(c3ncnc(N)c3-c3cn[nH]c3)CC2)c(F)c1F (centres unmarked) [Example 100, 6-{4-[2-Azetidin-1-yl-1-(2,3-difluoro-4-methyl-phenyl)-ethyl]-piperazin-1-yl}-5-(1H-pyrazol-4-yl)-pyrimidin-4-ylamine]
28 | 100 nM | NCC(c1ccc(C(F)(F)F)cc1)N1CCN(c2ncnc(N)c2-c2cnoc2)CC1 (centres unmarked) [Example 38, 6-(4-(2-amino-1-(4-(trifluoromethyl)phenyl)ethyl)piperazin-1-yl)-5-(isoxazol-4-yl)pyrimidin-4-amine]
29 | 260 nM | Nc1ncnc(N2CCN([C@H](CN3CCC3)c3ccc4c(c3)OCCO4)CC2)c1-c1ccc(F)cc1 [Example 98, 6-{4-[(S)-2-Azetidin-1-yl-1-(2,3-dihydro-benzo[1,4]dioxin-6-yl)-ethyl]-piperazin-1-yl}-5-(4-fluoro-phenyl)-pyrimidin-4-ylamine]
30 | 1200 nM | N#Cc1cccc([C@@H](CN2CCC2)N2CCN(c3ncnc(N)c3-c3ccc(F)cc3)CC2)c1 [Example 125, 3-((S)-1-{4-[6-Amino-5-(4-fluoro-phenyl)-pyrimidin-4-yl]-piperazin-1-yl}-2-azetidin-1-yl-ethyl)-benzonitrile]
31 | 280 nM | CS(=O)(=O)c1ccc(C(CN2CCC2)N2CCN(c3ncnc(N)c3-c3ccc(F)cc3)CC2)cc1 (centres unmarked) [Example 128, 6-{4-[2-Azetidin-1-yl-1-(4-methanesulfonyl-phenyl)-ethyl]-piperazin-1-yl}-5-(4-fluoro-phenyl)-pyrimidin-4-ylamine]
32 | 7.2 nM | Nc1ncnc(N2CCN(Cc3ccc(C(F)(F)F)cc3)CC2)c1-c1ccc(F)cc1 [Example 13, 5-(4-Fluoro-phenyl)-6-[4-(4-trifluoromethyl-benzyl)-piperazin-1-yl]-pyrimidin-4-ylamine]
33 | > 1000 nM | Nc1cc(N2CCN(C(CN3CCCCC3)c3ccc(F)cc3)CC2)ncn1 (centres unmarked) [Example 79, 6-{4-[1-(4-fluoro-phenyl)-2-piperidin-1-yl-ethyl]-piperazin-1-yl}-pyrimidin-4-ylamine]
34 | 820 nM | Nc1ncnc(N2CCC(N)(C(=O)N[C@H](c3ccc(Cl)cc3)C(F)(F)F)CC2)c1Cl [Example 216, 4-Amino-1-(6-amino-5-chloro-pyrimidin-4-yl)-piperidine-4-carboxylic acid [(R)-1-(4-chloro-phenyl)-2,2,2-trifluoroethyl]-amide]
35 | 290 nM | Nc1ncnc(N2CC[C@@](N)(CNC(=O)c3ccc(F)cc3F)C2)c1-c1ccc(F)cc1 [Example 248, N—{(R)-3-Amino-1-[6-amino-5-(4-fluoro-phenyl)-pyrimidin-4-yl]-pyrrolidin-3-ylmethyl}-2,4-difluoro-benzamide]
